Experimental data reported in patent publication US20120029187A1, “HALOALKYLSULFONANILIDE DERIVATIVE” (Nissan Chemical Industries, Ltd., priority 2009, published 2012).

How the values were obtained:
Assay type in all cases: in vivo
barnyardgrass [1] = assay: Test Example 1: herbicidal effects in preemergence treatment under submerged conditions; settings: dose 2.52 g/a
Procedure, shortened: (§1)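 Alluvial soil flooded to 4 cm depth; barnyardgrass, bulrush and ducksalad sown and 2.5-leaf rice seedlings transplanted. Same day, water-diluted emulsifiable concentrates applied to the water surface at set doses (g/a). Kept at 25–30 °C in greenhouse; effects scored 0–5 by mortality after three weeks.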

bulrush [2] = assay: as above; settings: dose 2.52 g/a
Procedure, shortened: as §1

ducksalad [3] = assay: as above; settings: dose 2.52 g/a
Procedure, shortened: as §1

transplanted rice = assay: Test Example 1: preemergence treatment under submerged conditions, effect on crop; settings: dose 2.52 g/a
Procedure, shortened: as §1

barnyardgrass [4] = assay: Test Example 2: herbicidal effects during the vegetation period under submerged conditions; settings: treatment during the vegetation period under submerged conditions; dose 2.52 g/a
Procedure, shortened: (§2)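 Barnyardgrass, bulrush and ducksalad were co-sown in alluvial soil flooded to 4 cm and grown in a greenhouse at 25 to 30° C. At the 1- or 2-leaf stage, water-diluted emulsifiable concentrates went onto the water surface at set doses (g/a). Herbicidal effect was scored three weeks later on a graded scale.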

bulrush [5] = assay: as above; settings: treatment during the vegetation period under submerged conditions; dose 2.52 g/a
Procedure, shortened: as §2

ducksalad [6] = assay: as above; settings: treatment during the vegetation period under submerged conditions; dose 2.52 g/a
Procedure, shortened: as §2

Italian ryegrass [7] = assay: Test Example 3: herbicidal effects in soil treatment; settings: dose 3.2 g/a
Procedure, shortened: (§3)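 Seeds were sown in sterilized diluvial soil and covered with about 1.5 cm of soil. Compounds, formulated as emulsifiable concentrates and diluted with water, were sprayed evenly over the soil surface at set doses in g/a. Herbicidal effect was scored on a rating scale three weeks later.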

barnyardgrass [8] = assay: as above; settings: dose 3.2 g/a
Procedure, shortened: as §3

beadstraw [9] = assay: as above; settings: dose 3.2 g/a
Procedure, shortened: as §3

common chickweed [10] = assay: as above; settings: dose 3.2 g/a
Procedure, shortened: as §3

common lambsquater [11] = assay: as above; settings: dose 3.2 g/a
Procedure, shortened: as §3

common ragweed [12] = assay: as above; settings: dose 3.2 g/a
Procedure, shortened: as §3

giant foxtail [13] = assay: as above; settings: dose 3.2 g/a
Procedure, shortened: as §3

large crabgrass [14] = assay: as above; settings: dose 3.2 g/a
Procedure, shortened: as §3

redroot pigweed [15] = assay: as above; settings: dose 3.2 g/a
Procedure, shortened: as §3

velvetleaf [16] = assay: as above; settings: dose 3.2 g/a
Procedure, shortened: as §3

water foxtail [17] = assay: as above; settings: dose 3.2 g/a
Procedure, shortened: as §3

Italian ryegrass [18] = assay: Test Example 4: herbicidal effect in foliage treatment; settings: dose 3.2 g/a
Procedure, shortened: (§4)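 A uniform foliar spray of emulsifiable concentrate, diluted with water to give the stated g/a dose, was applied to plants raised for 14 days from seed in sterilized diluvial soil at 25 to 30° C. Herbicidal effects were scored three weeks later.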

barnyardgrass [19] = assay: as above; settings: dose 3.2 g/a
Procedure, shortened: as §4

common chickweed [20] = assay: as above; settings: dose 3.2 g/a
Procedure, shortened: as §4

common lambsquater [21] = assay: as above; settings: dose 3.2 g/a
Procedure, shortened: as §4

common ragweed [22] = assay: as above; settings: dose 3.2 g/a
Procedure, shortened: as §4

giant foxtail [23] = assay: as above; settings: dose 3.2 g/a
Procedure, shortened: as §4

large crabgrass [24] = assay: as above; settings: dose 3.2 g/a
Procedure, shortened: as §4

posumbu knotweed [25] = assay: as above; settings: dose 3.2 g/a
Procedure, shortened: as §4

redroot pigweed [26] = assay: as above; settings: dose 3.2 g/a
Procedure, shortened: as §4

velvetleaf [27] = assay: as above; settings: dose 3.2 g/a
Procedure, shortened: as §4

water foxtail [28] = assay: as above; settings: dose 3.2 g/a
Procedure, shortened: as §4

posumbu knotweed [29] = assay: Test Example 3: herbicidal effects in soil treatment; settings: dose 3.2 g/a
Procedure, shortened: as §3

wild oat [30] = assay: as above; settings: dose 3.2 g/a
Procedure, shortened: as §3

beadstraw [31] = assay: Test Example 4: herbicidal effect in foliage treatment; settings: dose 3.2 g/a, three weeks after the application
Procedure, shortened: as §4

wild oat [32] = assay: as above; settings: dose 3.2 g/a, three weeks after the application
Procedure, shortened: as §4

[33] = three weeks after the application

CC1(c2ccccc2)CC(=O)N(Cc2ccccc2NS(=O)(=O)C(F)(F)F)CO1 (stereo not shown) [II-57]
A: barnyardgrass, herbicidal effect (evaluation scale 0-5) (barnyardgrass [1]): 5 (mortality of 90% or above (nearly complete death))
B: bulrush, herbicidal effect (evaluation scale 0-5) (bulrush [2]): 5 (mortality of 90% or above (nearly complete death))
C: ducksalad, herbicidal effect (evaluation scale 0-5) (ducksalad [3]): 5 (mortality of 90% or above (nearly complete death))
a: transplanted rice, effect on crop (evaluation scale 0-5) (transplanted rice): 0 (mortality of less than 5% (almost ineffective))
A: barnyardgrass, herbicidal effect (evaluation scale 0-5) (barnyardgrass [4]): 2 (mortality of at least 20% and less than 40%)
B: bulrush, herbicidal effect (evaluation scale 0-5) (bulrush [5]): 5 (mortality of 90% or above (nearly complete death))
C: ducksalad, herbicidal effect (evaluation scale 0-5) (ducksalad [6]): 5 (mortality of 90% or above (nearly complete death))
H: Italian ryegrass, herbicidal effect (evaluation scale 0-5) (Italian ryegrass [7]): 5 (mortality of 90% or above (nearly complete death))
A: barnyardgrass, herbicidal effect (evaluation scale 0-5) (barnyardgrass [8]): 2 (mortality of at least 20% and less than 40%)
O: beadstraw, herbicidal effect (evaluation scale 0-5) (beadstraw [9]): 0 (mortality of less than 5% (almost ineffective))
N: common chickweed, herbicidal effect (evaluation scale 0-5) (common chickweed [10]): 4 (mortality of at least 70% and less than 90%)
L: common lambsquater, herbicidal effect (evaluation scale 0-5) (common lambsquater [11]): 0 (mortality of less than 5% (almost ineffective))
J: common ragweed, herbicidal effect (evaluation scale 0-5) (common ragweed [12]): 0 (mortality of less than 5% (almost ineffective))
E: giant foxtail, herbicidal effect (evaluation scale 0-5) (giant foxtail [13]): 5 (mortality of 90% or above (nearly complete death))
D: large crabgrass, herbicidal effect (evaluation scale 0-5) (large crabgrass [14]): 3 (mortality of at least 40% and less than 70%)
K: redroot pigweed, herbicidal effect (evaluation scale 0-5) (redroot pigweed [15]): 0 (mortality of less than 5% (almost ineffective))
I: velvetleaf, herbicidal effect (evaluation scale 0-5) (velvetleaf [16]): 5 (mortality of 90% or above (nearly complete death))
G: water foxtail, herbicidal effect (evaluation scale 0-5) (water foxtail [17]): 5 (mortality of 90% or above (nearly complete death))
H: Italian ryegrass, herbicidal effect (Italian ryegrass [18]; three weeks after application): 5 (mortality of 90% or above (nearly complete death))
A: barnyardgrass, herbicidal effect (barnyardgrass [19]; three weeks after application): 4 (mortality of at least 70% and less than 90%)
N: common chickweed, herbicidal effect (common chickweed [20]; three weeks after application): 4 (mortality of at least 70% and less than 90%)
L: common lambsquater, herbicidal effect (common lambsquater [21]; three weeks after application): 3 (mortality of at least 40% and less than 70%)
J: common ragweed, herbicidal effect (common ragweed [22]; three weeks after application): 3 (mortality of at least 40% and less than 70%)
E: giant foxtail, herbicidal effect (giant foxtail [23]; three weeks after application): 2 (mortality of at least 20% and less than 40%)
D: large crabgrass, herbicidal effect (large crabgrass [24]; three weeks after application): 2 (mortality of at least 20% and less than 40%)
M: posumbu knotweed, herbicidal effect (posumbu knotweed [25]; three weeks after application): 3 (mortality of at least 40% and less than 70%)
K: redroot pigweed, herbicidal effect (redroot pigweed [26]; three weeks after application): 0 (mortality of less than 5% (almost ineffective))
I: velvetleaf, herbicidal effect (velvetleaf [27]; three weeks after application): 3 (mortality of at least 40% and less than 70%)
G: water foxtail, herbicidal effect (water foxtail [28]; three weeks after application): 3 (mortality of at least 40% and less than 70%)

CCN1COCN(Cc2ccccc2N(C(=O)OCC(C)C)S(=O)(=O)C(F)(F)F)C1=O [IV-8]
A: barnyardgrass, herbicidal effect (evaluation scale 0-5) (barnyardgrass [1]): 5 (mortality of 90% or above (nearly complete death))
B: bulrush, herbicidal effect (evaluation scale 0-5) (bulrush [2]): 5 (mortality of 90% or above (nearly complete death))
C: ducksalad, herbicidal effect (evaluation scale 0-5) (ducksalad [3]): 4 (mortality of at least 70% and less than 90%)
a: transplanted rice, effect on crop (evaluation scale 0-5) (transplanted rice): 0 (mortality of less than 5% (almost ineffective))
A: barnyardgrass, herbicidal effect (evaluation scale 0-5) (barnyardgrass [4]): 5 (mortality of 90% or above (nearly complete death))
B: bulrush, herbicidal effect (evaluation scale 0-5) (bulrush [5]): 5 (mortality of 90% or above (nearly complete death))
C: ducksalad, herbicidal effect (evaluation scale 0-5) (ducksalad [6]): 4 (mortality of at least 70% and less than 90%)
herbicidal effect, H: Italian ryegrass (Italian ryegrass [7]): 0 (mortality of less than 5% (almost ineffective))
herbicidal effect, A: barnyardgrass (barnyardgrass [8]): 4 (mortality of at least 70% and less than 90%)
herbicidal effect, N: common chickweed (common chickweed [10]): 0 (mortality of less than 5% (almost ineffective))
herbicidal effect, L: common lambsquater (common lambsquater [11]): 0 (mortality of less than 5% (almost ineffective))
herbicidal effect, J: common ragweed (common ragweed [12]): 0 (mortality of less than 5% (almost ineffective))
herbicidal effect, E: giant foxtail (giant foxtail [13]): 1 (mortality of at least 5% and less than 20%)
herbicidal effect, D: large crabgrass (large crabgrass [14]): 1 (mortality of at least 5% and less than 20%)
herbicidal effect, M: posumbu knotweed (posumbu knotweed [29]): 0 (mortality of less than 5% (almost ineffective))
herbicidal effect, K: redroot pigweed (redroot pigweed [15]): 0 (mortality of less than 5% (almost ineffective))
herbicidal effect, I: velvetleaf (velvetleaf [16]): 0 (mortality of less than 5% (almost ineffective))
herbicidal effect, G: water foxtail (water foxtail [17]): 5 (mortality of 90% or above (nearly complete death))
herbicidal effect, F: wild oat (wild oat [30]): 0 (mortality of less than 5% (almost ineffective))
H: Italian ryegrass, herbicidal effect (Italian ryegrass [18]; [33]): 0 (mortality of less than 5% (almost ineffective))
A: barnyardgrass, herbicidal effect (barnyardgrass [19]; [33]): 5 (mortality of 90% or above (nearly complete death))
O: beadstraw, herbicidal effect (beadstraw [31]): 3 (mortality of at least 40% and less than 70%)
N: common chickweed, herbicidal effect (common chickweed [20]; [33]): 3 (mortality of at least 40% and less than 70%)
L: common lambsquater, herbicidal effect (common lambsquater [21]; [33]): 0 (mortality of less than 5% (almost ineffective))
J: common ragweed, herbicidal effect (common ragweed [22]; [33]): 3 (mortality of at least 40% and less than 70%)
E: giant foxtail, herbicidal effect (giant foxtail [23]; [33]): 4 (mortality of at least 70% and less than 90%)
D: large crabgrass, herbicidal effect (large crabgrass [24]; [33]): 4 (mortality of at least 70% and less than 90%)
M: posumbu knotweed, herbicidal effect (posumbu knotweed [25]; [33]): 0 (mortality of less than 5% (almost ineffective))
K: redroot pigweed, herbicidal effect (redroot pigweed [26]; [33]): 0 (mortality of less than 5% (almost ineffective))
I: velvetleaf, herbicidal effect (velvetleaf [27]; [33]): 3 (mortality of at least 40% and less than 70%)
G: water foxtail, herbicidal effect (water foxtail [28]; [33]): 5 (mortality of 90% or above (nearly complete death))
F: wild oat, herbicidal effect (wild oat [32]): 0 (mortality of less than 5% (almost ineffective))
